According to patent US20180273531A1, “PYRIMIDINE COMPOUND AND MEDICAL USE THEREOF” (Japan Tobacco Inc., priority 2004, published 2018):

The compounds below were run on colorectal cancer cell line HT-29 cells (assay: Growth inhibitory effect against cancer cell lines (3H-thymidine uptake), HT-29). Details: Homo sapiens, HT-29, inhibition of 3H-thymidine uptake; test substance 18 hrs, then 3H-thymidine 6 hrs; triplicate.
Format: cell-based
Procedure: Renal cancer cell line ACHN cell or colorectal cancer cell line HT-29 cells were cultured in a 96 well plate at 1.0×10^4 cells/90 μL/well for 24 hrs, then a test substance dissolved in DMSO (dimethyl sulfoxide) was added. After 18 hrs, ^3H-thymidine (0.25 μCi/well) was added and the cells were cultured for 6 hrs. Using a cell harvester, the cells were recovered on a UniFilter-96 GF/B glass filter and the ^3H radioactivity uptaken by the cells was measured by TopCount (Packard). As a control, DMSO was used and the activity of the test substance was expressed in the concentration (IC50) necessary for inhibiting ^3H radioactivity uptaken by the cell to 50% of that of the control group. The measurements were made in triplicate.
For COc1ccc(Nc2cc(=O)n(C)c3c2c(=O)n(C2CC2)c(=O)n3-c2ccccc2)cc1 [Example 1-129], the IC50 was 100 to 1000 nM. In the case of C=CCn1c(=O)c2c(Nc3ccc(N(C)C)cc3)cc(=O)n(C)c2n(-c2ccccc2)c1=O [Example 1-140], the IC50 is reported as 100 to 1000 nM. Compound COc1ccccc1-n1c(=O)n(C2CC2)c(=O)c2c(Nc3ccc(Br)cc3)cc(=O)n(C)c21 [Example 1-159] has an IC50 of 100 to 1000 nM. With CCn1c(=O)c2c(Nc3ccc(Br)cc3F)cc(=O)n(C)c2n(-c2ccccc2)c1=O [Example 1-164] the IC50 was 10 to 100 nM. Cn1c(=O)cc(Nc2ccc(Cl)cc2F)c2c(=O)n(C3CC3)c(=O)n(-c3ccccc3)c21 [Example 1-171] showed an IC50 of 10 to 100 nM. With COc1cc(Br)ccc1Nc1cc(=O)n(C)c2c1c(=O)n(C1CC1)c(=O)n2-c1ccccc1 [Example 1-189] the IC50 was 100 to 1000 nM. In the case of COc1cccc(-n2c(=O)n(C3CC3)c(=O)c3c(Nc4ccc(Br)cc4)cc(=O)n(C)c32)c1 [Example 1-190], the IC50 is reported as 100 to 1000 nM. Compound Cn1c(=O)cc(Nc2ccc(Br)cc2F)c2c(=O)n(C3CC3)c(=O)n(-c3cccc(CCC(=O)O)c3)c21 [Example 1-201] has an IC50 of 100 to 1000 nM. CN1CCN(c2cccc(-n3c(=O)n(C4CC4)c(=O)c4c(Nc5ccc(Br)cc5F)cc(=O)n(C)c43)c2)CC1 [Example 1-206] showed an IC50 of 100 to 1000 nM. Work on COc1ccc(Nc2cc(=O)n(C)c3c2c(=O)n(C2CC2)c(=O)n3-c2ccccc2)c(Br)c1 [Example 1-211] yielded an IC50 of 100 to 1000 nM. For Cn1c(=O)cc(Nc2ccc(Br)cc2F)c2c(=O)n(C3CC3)c(=O)n(-c3cccc(N4CCCCC4=O)c3)c21 [Example 1-214], the IC50 was 10 to 100 nM. Work on Cn1c(=O)cc(Nc2ccc(Br)cc2F)c2c(=O)n(C3CC3)c(=O)n(-c3cccc(N4CCCC4)c3)c21 [Example 1-215] yielded an IC50 of 100 to 1000 nM. Cn1c(=O)cc(Nc2ccc(Br)cc2F)c2c(=O)n(C3CC3)c(=O)n(-c3cccc(N4CCCCC4)c3)c21 [Example 1-216] showed an IC50 of 100 to 1000 nM. CCN(C)c1ccc(Nc2cc(=O)n(C)c3c2c(=O)n(C2CC2)c(=O)n3-c2ccccc2)c(F)c1 [Example 1-217] showed an IC50 of 100 to 1000 nM. With Cn1c(=O)cc(Nc2ccc(Br)cc2F)c2c(=O)n(C3CC3)c(=O)n(-c3ccc(S(C)(=O)=O)cc3)c21 [Example 1-225] the IC50 was 100 to 1000 nM. CN(C)CCCOc1cccc(-n2c(=O)n(C3CC3)c(=O)c3c(Nc4ccc(Br)cc4F)cc(=O)n(C)c32)c1 [Example 1-227] was tested, and the IC50 was 10 to 100 nM. Compound CC(C)c1ccc(Nc2cc(=O)n(C)c3c2c(=O)n(C2CC2)c(=O)n3-c2ccccc2)cc1 [Example 1-229] has an IC50 of 100 to 1000 nM. CCc1ccc(Nc2cc(=O)n(C)c3c2c(=O)n(C2CC2)c(=O)n3-c2ccccc2)cc1 [Example 1-230] gave an IC50 of 100 to 1000 nM. Cn1c(=O)cc(Nc2ccc(Br)cc2F)c2c(=O)n(C3CC3)c(=O)n(-c3cccc(OCCN4CCCC4)c3)c21 [Example 1-233] was tested, and the IC50 was 100 to 1000 nM. With Cn1c(=O)cc(Nc2ccc(Br)cc2F)c2c(=O)n(C3CC3)c(=O)n(-c3cccc(OCCN4CCCCC4)c3)c21 [Example 1-234] the IC50 was 100 to 1000 nM. With CCN(CC)CCOc1cccc(-n2c(=O)n(C3CC3)c(=O)c3c(Nc4ccc(Br)cc4F)cc(=O)n(C)c32)c1 [Example 1-235] the IC50 was 100 to 1000 nM. CN1CCN(CCCOc2cccc(-n3c(=O)n(C4CC4)c(=O)c4c(Nc5ccc(Br)cc5F)cc(=O)n(C)c43)c2)CC1 [Example 1-236] gave an IC50 of 100 to 1000 nM. For CCn1c(=O)c2c(Nc3ccc(Br)cc3F)cc(=O)n(C)c2n(-c2cccnc2)c1=O [Example 1-244], the IC50 was 100 to 1000 nM. CN(C)CCCc1cccc(-n2c(=O)n(C3CC3)c(=O)c3c(Nc4ccc(Br)cc4F)cc(=O)n(C)c32)c1 [Example 1-252] gave an IC50 of 10 to 100 nM. Compound Cn1c(=O)cc(Nc2ccc(Br)cc2F)c2c(=O)n(C3CC3)c(=O)n(-c3cccc(CCCN4CCCCC4)c3)c21 [Example 1-255] has an IC50 of 100 to 1000 nM. CCCc1ccc(Nc2cc(=O)n(C)c3c2c(=O)n(C2CC2)c(=O)n3-c2ccccc2)c(F)c1 [Example 1-258] showed an IC50 of 100 to 1000 nM. Cn1c(=O)cc(Nc2ccc(C(F)(F)F)cc2)c2c(=O)n(C3CC3)c(=O)n(-c3ccccc3)c21 [Example 1-273] gave an IC50 of 100 to 1000 nM. Compound CN(C)CC(=O)Nc1cccc(-n2c(=O)n(C3CC3)c(=O)c3c(Nc4ccc(Br)cc4F)cc(=O)n(C)c32)c1 [Example 1-277] has an IC50 of 10 to 100 nM. Compound Cn1c(=O)cc(Nc2ccc(Br)cc2F)c2c(=O)n(C3CC3)c(=O)n(-c3cccc(S(N)(=O)=O)c3)c21 [Example 1-288] has an IC50 of 10 to 100 nM. CNC(=O)c1cccc(-n2c(=O)n(C3CC3)c(=O)c3c(Nc4ccc(Br)cc4F)cc(=O)n(C)c32)c1 [Example 1-292] gave an IC50 of 10 to 100 nM. For Cn1c(=O)cc(Nc2ccc(Br)cc2F)c2c(=O)n(C3CC3)c(=O)n(-c3cccc(NC(=O)CCO)c3)c21 [Example 1-305], the IC50 was 10 to 100 nM. With Cn1c(=O)cc(Nc2ccc(Br)cc2F)c2c(=O)n(C3CC3)c(=O)n(-c3cccc(NS(=O)(=O)CCN)c3)c21 [Example 1-313] the IC50 was 10 to 100 nM. With CN(C)C(=O)Nc1cccc(-n2c(=O)n(C3CC3)c(=O)c3c(Nc4ccc(Br)cc4F)cc(=O)n(C)c32)c1 [Example 1-324] the IC50 was 10 to 100 nM. In the case of Cn1c(=O)cc(Nc2ccc(CC(F)F)cc2)c2c(=O)n(C3CC3)c(=O)n(-c3ccccc3)c21 [Example 1-326], the IC50 is reported as 100 to 1000 nM. Compound Cn1c(=O)cc(Nc2ccc(Br)cc2F)c2c(=O)n(C3CC3)c(=O)n(-c3cccc(NCCN)c3)c21 [Example 1-334] has an IC50 of 100 to 1000 nM. Compound CC(=O)Nc1ccc(-n2c(=O)n(C3CC3)c(=O)c3c(Nc4ccc(Br)cc4F)n(C)c(=O)c(C)c32)cc1 [Example 4-4] has an IC50 of 100 to 1000 nM. Work on CC(=O)Nc1cccc(-n2c(=O)n(C3CC3)c(=O)c3c(Nc4ccccc4F)n(C)c(=O)c(C)c32)c1 [Example 4-7] yielded an IC50 of 100 to 1000 nM. With CCCCC(=O)NCCC(=O)Nc1cccc(-n2c(=O)n(C3CC3)c(=O)c3c(Nc4ccccc4F)n(C)c(=O)c(C)c32)c1 [Example 4-13] the IC50 was 100 to 1000 nM. Compound CC(=O)Nc1cccc(-n2c(=O)n(C3CC3)c(=O)c3c(Nc4ccc(C5CCCC5)cc4F)n(C)c(=O)c(C)c32)c1 [Example 4-57] has an IC50 of 100 to 1000 nM. For COc1ccc(-n2c(=O)n(C3CC3)c(=O)c3c(Nc4ccc(I)cc4F)n(C)c(=O)c(C)c32)cc1NC(C)=O [Example 4-63], the IC50 was 10 to 100 nM. With CCc1ccc(Nc2c3c(=O)n(C4CC4)c(=O)n(-c4ccc(NC(C)=O)cc4)c3c(C)c(=O)n2C)c(F)c1 [Example 4-75] the IC50 was 10 to 100 nM. For Cc1c(=O)n(C)c(Nc2ccc(Br)cc2)c2c(=O)n(CCO)c(=O)n(-c3ccccc3)c12 [Example 4-85], the IC50 was 100 to 1000 nM. CC(=O)N(c1cccc(-n2c(=O)n(C3CC3)c(=O)c3c(Nc4ccc(I)cc4F)n(C)c(=O)c(C)c32)c1)S(C)(=O)=O [Example 4-133] was tested, and the IC50 was 100 to 1000 nM. With CC(=O)Nc1cccc(-n2c(=O)n(CCCO)c(=O)c3c(Nc4ccc(I)cc4F)n(C)c(=O)c(C)c32)c1 [Example 4-135] the IC50 was 100 to 1000 nM. Work on CC(=O)N(c1cccc(-n2c(=O)n(C3CC3)c(=O)c3c(Nc4ccc(I)cc4F)n(C)c(=O)c(C)c32)c1)S(=O)(=O)N(C)C [Example 4-138] yielded an IC50 of 100 to 1000 nM. CC(=O)N(C(C)=O)c1cccc(-n2c(=O)n(C3CC3)c(=O)c3c(Nc4ccc(I)cc4F)n(C)c(=O)c(C)c32)c1 [Example 4-140] was tested, and the IC50 was 100 to 1000 nM. For Cc1c(=O)n(C)c(Nc2ccc(I)cc2F)c2c(=O)n(CCCO)c(=O)n(-c3cccc(NS(C)(=O)=O)c3)c12 [Example 4-145], the IC50 was 100 to 1000 nM. Cc1c(=O)n(C)c(Nc2ccc(I)cc2F)c2c(=O)n(CCCO)c(=O)n(-c3ccc4oc(=O)[nH]c4c3)c12 [Example 4-146] was tested, and the IC50 was 100 to 1000 nM.
